The subject of assay [1] is recombinant human anti-SARS-CoV antibody 03-018. The class given is binding. Further details: Binding of antibody 03-018 to linear peptides of the N protein of SARS-CoV Urbani / Binding of antibody 03-018 to looped/cyclic peptides of the N protein of SARS-CoV Urbani: unit not given here.
Assay [2] deals with rabbit serum obtained by immunizing a rabbit with the SARS-CoV strain Frankfurt 1. The class given is binding. Further details: Binding of a rabbit serum to linear peptides / Binding of a rabbit serum to looped peptides / Rabbit serum linear peptides / Rabbit serum looped peptides / Binding of a rabbit serum to linear peptides of protein N of SARS-CoV Urbani (Rabbit serum linear peptides) / Binding of a rabbit serum to looped/cyclic peptides of protein N of SARS-CoV Urbani (Rabbit serum looped peptides): unit not given here.

The subject of assay [3] is control sera (pooled serum of ten healthy LUMC hospital workers; commercial negative donor pooled serum from the Dutch bloodbank). The format is binding, human. Details: Binding of Control serum LUMC to linear peptides / Binding of Control serum Blood-bank to linear peptides / Binding of Control serum LUMC to looped peptides / Binding of Control Serum Blood-Bank to Looped peptides / Binding of Control serum LUMC to linear peptides of the protein M of SARS-CoV Urbani / Binding of Control serum Blood-bank to linear peptides of the protein M of SARS-CoV Urbani / Binding of Control serum LUMC to looped peptides of the protein M of SARS-CoV Urbani / Binding of Control Serum Blood-Bank to Looped peptides of the protein M of SARS-CoV Urbani: unit not given here.

In the case of NSPARMASGGGETAL, in assay [1], the “Binding of antibody 03-018 to linear peptides of the N protein of SARS-CoV Urbani” value is 0.1 and the “Binding of antibody 03-018 to looped/cyclic peptides of the N protein of SARS-CoV Urbani” value was 0.2. Moreover, in assay [2], the “Binding of a rabbit serum to linear peptides of protein N of SARS-CoV Urbani (Rabbit serum linear peptides)” value (shortened to “Binding … (Rabbit serum linear peptides)”) worked out at 0.3 and the “Binding of a rabbit serum to looped/cyclic peptides of protein N of SARS-CoV Urbani (Rabbit serum looped peptides)” value came out at 0.3. In assay [3], the “Binding of Control Serum Blood-Bank to Looped peptides” value is listed as 0.3, the “Binding of Control serum Blood-bank to linear peptides” value stood at 0.9, the “Binding of Control serum LUMC to linear peptides” value is on record as 0.7 and the “Binding of Control serum LUMC to looped peptides” value turned out to be 0.4.
As to PQFKDNVILLNKHID, in assay [1], the “Binding of antibody 03-018 to linear peptides of the N protein of SARS-CoV Urbani” value amounted to 0.1 and the “Binding of antibody 03-018 to looped/cyclic peptides of the N protein of SARS-CoV Urbani” value was 0.2. Further, in assay [2], the “Binding … (Rabbit serum linear peptides)” value is 0.2 and the “Binding of a rabbit serum to looped/cyclic peptides of protein N of SARS-CoV Urbani (Rabbit serum looped peptides)” value is reported as 0.4. Besides, in assay [3], the “Control Serum Blood-Bank Looped peptides” value was 0.7, the “Control serum Blood-bank linear peptides” value is 0.7, the “Control serum LUMC linear peptides” value is reported as 0.7 and the “Control serum LUMC looped peptides” value is recorded as 0.8.
As to PRQKRTATKQYNVTQ, in assay [1], the “Binding of antibody 03-018 to linear peptides of the N protein of SARS-CoV Urbani” value worked out at 0.1 and the “Binding of antibody 03-018 to looped/cyclic peptides of the N protein of SARS-CoV Urbani” value stood at 0.2. Further, the “Recognition of the peptide by the rabbit serum” value (“Recognition of the peptide” below) in assay [2] is reported as “recognized”. In assay [3], the “Binding of Control Serum Blood-Bank to Looped peptides” value is reported as 1.0, the “Binding of Control serum Blood-bank to linear peptides” value stood at 1.0, the “Binding of Control serum LUMC to linear peptides” value was determined as 0.9 and the “Binding of Control serum LUMC to looped peptides” value was determined as 0.9.
In the case of QFKDNVILLNKHIDA, in assay [1], the “Binding of antibody 03-018 to linear peptides of the N protein of SARS-CoV Urbani” value worked out at 0.1 and the “Binding of antibody 03-018 to looped/cyclic peptides of the N protein of SARS-CoV Urbani” value came to 0.3. Moreover, in assay [2], the “Binding … (Rabbit serum linear peptides)” value is 0.1 and the “Binding of a rabbit serum to looped/cyclic peptides of protein N of SARS-CoV Urbani (Rabbit serum looped peptides)” value amounted to 0.7. Further, in assay [3], the “Control Serum Blood-Bank Looped peptides” value is reported as 0.9, the “Control serum Blood-bank linear peptides” value amounted to 0.6, the “Control serum LUMC linear peptides” value was determined as 0.6 and the “Control serum LUMC looped peptides” value came out at 0.8.
As for QGTTLPKGFYAEGSR, in assay [1], the “Binding of antibody 03-018 to linear peptides of the N protein of SARS-CoV Urbani” value came to 0.1 and the “Binding of antibody 03-018 to looped/cyclic peptides of the N protein of SARS-CoV Urbani” value was determined as 0.2. For the same sequence, in assay [2], the “Binding … (Rabbit serum linear peptides)” value is recorded as 0.1 and the “Binding of a rabbit serum to looped/cyclic peptides of protein N of SARS-CoV Urbani (Rabbit serum looped peptides)” value came to 0.6. Besides, in assay [3], the “Binding of Control Serum Blood-Bank to Looped peptides” value came to 0.7, the “Binding of Control serum Blood-bank to linear peptides” value came out at 0.8, the “Binding of Control serum LUMC to linear peptides” value worked out at 0.7 and the “Binding of Control serum LUMC to looped peptides” value was 0.7.
For the sequence QKRTATKQYNVTQAF, in assay [1], the “Binding of antibody 03-018 to linear peptides of the N protein of SARS-CoV Urbani” value was determined as 0.1 and the “Binding of antibody 03-018 to looped/cyclic peptides of the N protein of SARS-CoV Urbani” value came out at 0.2. For the same sequence, the “Recognition of the peptide” value in assay [2] is given as “recognized”. Besides, in assay [3], the “Binding of Control Serum Blood-Bank to Looped peptides” value worked out at 0.8, the “Binding of Control serum Blood-bank to linear peptides” value came out at 0.8, the “Binding of Control serum LUMC to linear peptides” value is listed as 0.7 and the “Binding of Control serum LUMC to looped peptides” value was 0.8.
As to QLPQGTTLPKGFYAE, in assay [1], the “Binding of antibody 03-018 to linear peptides of the N protein of SARS-CoV Urbani” value was 0.1 and the “Binding of antibody 03-018 to looped/cyclic peptides of the N protein of SARS-CoV Urbani” value turned out to be 0.2. Moreover, in assay [2], the “Binding … (Rabbit serum linear peptides)” value worked out at 0.2 and the “Binding of a rabbit serum to looped/cyclic peptides of protein N of SARS-CoV Urbani (Rabbit serum looped peptides)” value is 0.4. For the same sequence, in assay [3], the “Binding of Control Serum Blood-Bank to Looped peptides” value came out at 0.6, the “Binding of Control serum Blood-bank to linear peptides” value is 0.9, the “Binding of Control serum LUMC to linear peptides” value was 0.7 and the “Binding of Control serum LUMC to looped peptides” value stood at 0.6.
In the case of RTATKQYNVTQAFGR, in assay [1], the “Binding of antibody 03-018 to linear peptides of the N protein of SARS-CoV Urbani” value came to 0.1 and the “Binding of antibody 03-018 to looped/cyclic peptides of the N protein of SARS-CoV Urbani” value was 0.2. In addition, in assay [2], the “Recognition of the peptide” value was “recognized”. For the same sequence, in assay [3], the “Binding of Control Serum Blood-Bank to Looped peptides” value stood at 0.8, the “Binding of Control serum Blood-bank to linear peptides” value worked out at 0.9, the “Binding of Control serum LUMC to linear peptides” value is given as 0.8 and the “Binding of Control serum LUMC to looped peptides” value was determined as 0.9.
For the sequence TLPKGFYAEGSRGGS, in assay [1], the “Binding of antibody 03-018 to linear peptides of the N protein of SARS-CoV Urbani” value is given as 0.1 and the “Binding of antibody 03-018 to looped/cyclic peptides of the N protein of SARS-CoV Urbani” value is 0.2. For the same sequence, in assay [2], the “Binding … (Rabbit serum linear peptides)” value is reported as 0.5 and the “Binding of a rabbit serum to looped/cyclic peptides of protein N of SARS-CoV Urbani (Rabbit serum looped peptides)” value was 0.3. Also, in assay [3], the “Binding of Control Serum Blood-Bank to Looped peptides” value is reported as 0.5, the “Binding of Control serum Blood-bank to linear peptides” value turned out to be 0.7, the “Binding of Control serum LUMC to linear peptides” value is 1.2 and the “Binding of Control serum LUMC to looped peptides” value stood at 0.5.
VLQLPQGTTLPKGFY: in assay [1], the “Binding of antibody 03-018 to linear peptides of the N protein of SARS-CoV Urbani” value is 0.1 and the “Binding of antibody 03-018 to looped/cyclic peptides of the N protein of SARS-CoV Urbani” value is 0.3. In assay [2], the “Binding … (Rabbit serum linear peptides)” value is on record as 0.2 and the “Binding of a rabbit serum to looped/cyclic peptides of protein N of SARS-CoV Urbani (Rabbit serum looped peptides)” value is listed as 0.4. In assay [3], the “Binding of Control Serum Blood-Bank to Looped peptides” value is listed as 0.7, the “Binding of Control serum Blood-bank to linear peptides” value was 0.7, the “Binding of Control serum LUMC to linear peptides” value came out at 0.6 and the “Binding of Control serum LUMC to looped peptides” value is 0.8.

(Values after US20070128217A1 (priority 2003, published 2007).)
